The assay deals with T1, hSGLT2 D201A (Homo sapiens, UniProt P31639, D201A).
T1 sequence (P31639 1-672 D201A): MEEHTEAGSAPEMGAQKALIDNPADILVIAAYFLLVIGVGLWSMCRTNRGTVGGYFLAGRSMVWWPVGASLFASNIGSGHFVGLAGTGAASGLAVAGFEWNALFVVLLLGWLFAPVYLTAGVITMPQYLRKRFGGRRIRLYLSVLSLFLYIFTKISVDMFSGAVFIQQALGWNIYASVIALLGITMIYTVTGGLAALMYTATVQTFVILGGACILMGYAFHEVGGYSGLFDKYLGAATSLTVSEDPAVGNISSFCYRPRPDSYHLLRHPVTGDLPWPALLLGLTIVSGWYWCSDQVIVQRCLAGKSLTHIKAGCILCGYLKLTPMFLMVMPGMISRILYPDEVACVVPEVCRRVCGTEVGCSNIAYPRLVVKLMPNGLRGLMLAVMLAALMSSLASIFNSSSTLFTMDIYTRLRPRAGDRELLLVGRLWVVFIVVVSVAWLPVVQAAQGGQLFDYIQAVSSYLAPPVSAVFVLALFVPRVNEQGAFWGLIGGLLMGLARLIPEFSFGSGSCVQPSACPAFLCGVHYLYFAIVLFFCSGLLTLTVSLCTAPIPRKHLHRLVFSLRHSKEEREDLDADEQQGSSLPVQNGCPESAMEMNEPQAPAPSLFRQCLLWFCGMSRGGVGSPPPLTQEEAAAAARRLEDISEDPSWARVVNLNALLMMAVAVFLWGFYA
T1 sequence (Q13113 1-114 partner): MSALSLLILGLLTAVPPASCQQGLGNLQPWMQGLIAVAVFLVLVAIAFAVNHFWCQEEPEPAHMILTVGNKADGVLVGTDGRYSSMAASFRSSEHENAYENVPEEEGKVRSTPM
Briefly: α-MG uptake in HEK293 cells, D201A mutant. It counts as cell-based. Details: expressed in transfected cells. An excerpt:
hSGLT2 complementary DNA and human MAP17 cDNA were synthesized and codon-optimized for expression in human cell lines. Both cDNAs were cloned into the pcDNA3.4 vector. The hSGLT2 sequence was fused with an N-terminal signal sequence from human trypsinogen 1, a His10 tag, and sfGFP, followed by a human rhinovirus 3C protease (HRV3C protease) recognition site. Point mutations were introduced into this construct using site-directed mutagenesis. These plasmids were utilized for all experimental procedures conducted in this study. […]
Cell lysates were deproteinized by adding acetonitrile containing candesartan as the internal standard. The α-MG concentration was quantified via liquid chromatography–tandem mass spectrometry (LC–MS/MS) using the internal standard method.
Cellular protein content was determined using a bicinchoninic acid protein assay kit (Thermo Fisher Scientific). The uptake of α-MG was expressed as the ratio of concentration in the cells (in pmol per mg protein) to concentration in the medium (in pmol μl^−1); this is known as the cell-to-medium ratio (in μl per mg protein).
In the inhibition study, the cell-to-medium ratio of cells transfected with the empty vector was used as the background. The specific α-MG uptake was calculated by subtracting this background from the total cell-to-medium ratio and normalized to the uptake achieved without the inhibitor. […]

“And” between values parts separate entries of the source, which are not always exact repeats. Identical values can stand only once.

Consider `CO[C@H]1O[C@H](CO)[C@@H](O)[C@H](O)[C@H]1O` [α-MG, α-methyl-D-glucopyranoside], for which, where the note is “D201A mutant”, the “uptake of α-MG (in words)” value is “No clear uptake”. For the same molecule, the α-MG uptake (Fig. 3h, D201A) is 6.25 μL/mg-protein and 10.67 μL/mg-protein and 6.52 μL/mg-protein.

Source of the values: article PMC10803289, “Transport and inhibition mechanism of the human SGLT2–MAP17 glucose transporter” (Nature Structural & Molecular Biology, 2023).
